# Measured values reported in patent US20160030415A1, “TREATMENT AND PROPHYLAXIS OF KIDNEY DISEASES” (priority 2013, published 2016).
# Marks after values point to notes of the source that are not given here.
# Assays:
# [1] = tested on: STZ induced diabetic nephropathy in rats; test: Study 4: HCQ and its combination with Losartan, Telmisartan, Azilsartan and Ramipril, with Glimepiride control; type: in vivo, Wistar rats; details: dose mg/kg: HCQ 70, GLM 1
# Experimental: The methods described in Terri et al, Diabetes Volume, 1997, 46:1612-1618, and Takashi et al, Jpn J. Pharmacol, 1997, 75, 59-64, were followed for inducing Diabetes in rats by injecting Streptozotocin. The Efficacy of the drugs was tested in two different models, one involving comparison with diabetic control (i.e. Diabetic Rats not treated with any medication) and the other involving comparison with the anti-diabetic control group (i.e. Diabetic rats administered Glimepiride) in two separate studies.
# Wistar rats of either sex weighing 150-200 g were divided randomly into 28 groups consisting of 6 animals each. Diabetes was induced in rats by single administration of streptozotocin (55 mg/kg/i.p) dissolved in 0.1 M-citrate buffer, pH 4.5. Group 1 (normal control) consisted of normal rats that neither received streptozotocin nor any test drug; Group 2 served as Diabetic control; Group 3 was diabetic rats treated with Hydroxychloroquine (35 mg/kg); Group 4 was diabetic rats treated with Hydroxychloroquine (45 mg/kg) and Group 5 was diabetic rats treated with Hydroxychloroquine (70 mg/kg); Group 6 was diabetic rats treated with Losartan (5.5 mg/kg); Group 7 was diabetic rats treated with Losartan (11 mg/kg); Group 8 was diabetic rats treated with combination of Losartan (5.5 mg/kg) and Hydroxychloroquine (45 mg/kg); Group 9 was diabetic rats treated with combination of Losartan (11 mg/kg) and Hydroxychloroquine (35 mg/kg); Group 10 was diabetic rats treated with Ramipril (0.6 mg/kg); Group 11 was diabetic rats treated with Ramipril (0.3 mg/kg); Group 12 was diabetic rats treated with combination of Ramipril (0.6 mg/kg) and Hydroxychloroquine (35 mg/kg); Group 13 was diabetic rats treated with combination of Ramipril (0.3 mg/kg) and Hydroxychloroquine (45 mg/kg); Group 14 was diabetic rats treated with combination of Ramipril (0.6 mg/kg) and Hydroxychloroquine (45 mg/kg); Group 15 was diabetic rats treated with combination of Ramipril (0.3 mg/kg) and Hydroxychloroquine (35 mg/kg); Group 16 was diabetic rats treated with Telmisartan (9.5 mg/kg); Group 17 was diabetic rats treated with Telmisartan (4.5 mg/kg); Group 18 was diabetic rats treated with combination of Telmisartan (9.5 mg/kg) and Hydroxychloroquine (35 mg/kg); Group 19 was diabetic rats treated with combination of Telmisartan (4.5 mg/kg) and Hydroxychloroquine (45 mg/kg); Group 20 was diabetic rats treated with combination of Telmisartan (9.5 mg/kg) and Hydroxychloroquine (45 mg/kg); Group 21 was diabetic rats treated with combination of Telmisartan (4.5 mg/kg) and Hydroxychloroquine (35 mg/kg); Group 22 was diabetic rats treated with Azilsartan (4.5 mg/kg); Group 23 was diabetic rats treated with Azilsartan (2.5 mg/kg); Group 24 was diabetic rats treated with combination of Azilsartan (4.5 mg/kg) and Hydroxychloroquine (35 mg/kg); Group 25 was diabetic rats treated with combination of Azilsartan (2.5 mg/kg) and Hydroxychloroquine (45 mg/kg); Group 26 was diabetic rats treated with combination of Azilsartan (4.5 mg/kg) and Hydroxychloroquine (45 mg/kg); Group 27 was diabetic rats treated with combination of Azilsartan (2.5 mg/kg) and Hydroxychloroquine (35 mg/kg); Group 28 served as Anti-Diabetic control wherein diabetic rats were treated with antidiabetic drug Glimepiride (GLM) (1 mg/kg).
# The study drugs were dissolved/suspended in vehicle and administered orally once a day for eight weeks. The diabetes mellitus induced nephropathy was assessed by estimating the level of serum urea, serum creatinine and total serum protein content after completion of eighth week of study. TBARS, GSH and Total Protein were measured as markers of renal oxidative stress in Kidney Homogenate after completion of eighth week of study. Blood glucose levels were also assessed at weekly interval.
# [2] = tested on: Streptozotocin (STZ) induced diabetic rats; test: Study 2: HCQ and its combination with Losartan in comparison with anti-diabetic control (Glimepiride) in renal damage; type: in vivo, Wistar rats
# Experimental: The Efficacy of the drugs was tested in two different models, one involving comparison with diabetic control (i.e. Diabetic Rats not treated with any medication) and the other involving comparison with the anti-diabetic control group (i.e. Diabetic rats administered Glimepiride) in two separate studies. 30 Wistar rats of either sex weighing 150-250 g were divided randomly into 5 groups consisting of 6 animals each. Diabetes was induced in rats by single administration of Streptozotocin (STZ)(55 mg/kg/i.p) dissolved in 0.1 M-citrate buffer, pH 4.5. Group 1 (normal control) consisted of normal rats that neither received streptozotocin nor any test drug; Group 2 served as Anti-Diabetic control wherein diabetic rats were treated with antidiabetic drug Glimepiride. Group 3 was diabetic rats treated with Losartan (11 mg/kg); Group 4 was diabetic rats treated with Hydroxychloroquine (45 mg/kg) and Group 5 was diabetic rats treated with combination of Hydroxychloroquine (45 mg/kg) and Losartan (11 mg/kg). The study drugs were dissolved/suspended in distilled water and administered orally once a day for eight weeks. The diabetes mellitus induced nephropathy was assessed by estimating the level of serum creatinine and total serum protein content after completion of eighth week of study. TBARS and Total Protein were measured as markers of renal oxidative stress in Kidney Homogenate after completion of eighth week of study.
# [3] = kidney homogenate, after 8th week
# [4] = Glimepiride 8 mg/kg alone (antidiabetic control) or with Losartan 11 mg/kg and/or Hydroxychloroquine 45 mg/kg, oral once daily
# [5] = after 8th week, Glimepiride 8 mg/kg alone or with Losartan 11 mg/kg and/or Hydroxychloroquine 45 mg/kg
# [6] = kidney homogenate, after 8th week, Glimepiride 8 mg/kg alone or with Losartan 11 mg/kg and/or Hydroxychloroquine 45 mg/kg
structure (smiles),measurement,setting,value
CCC1=C(C)CN(C(=O)NCCc2ccc(S(=O)(=O)NC(=O)N[C@H]3CC[C@H](C)CC3)cc2)C1=O [Glimepiride],HDL,[1]; after 8th week,29 ± 1.41 mg/dL
same,TC,[1]; after 8th week,142 ± 2.68 mg/dL
same,TG,[1]; after 8th week,96.5 ± 2.35 mg/dL
same,Glucose Day1,"[1]; blood, Day1",276.83 ± 19.14 mg/dL
same,Glucose Day14,"[1]; blood, Day14",216.67 ± 18.44 mg/dL
same,Glucose Day28,"[1]; blood, Day28",179.17 ± 7.36 mg/dL
same,Glucose Day42,"[1]; blood, Day42",159 ± 6.07 mg/dL
same,Glucose Day56,"[1]; blood, Day56",149.17 ± 7.83 mg/dL
same,GSH,[1]; [3],2.36 ± 0.64 nM/mg
same,TBARS,[1]; [3],0.5 ± 0.13 nM/mg
same,Total protein kidney,[1]; [3],856.83 ± 18.18 µg/mL
same,Creatinine,"[1]; serum, after 8th week",3.21 ± 0.23 mg/dL
same,Total protein,"[1]; serum, after 8th week",4.8 ± 0.18 g/dL
same,Urea,"[1]; serum, after 8th week",43 ± 2.1*^ mg/dl
same,Serum Creatinine after 8th week,[2]; [4],3.17 mg/dL
same,Serum Creatinine after 8th week (% Control),[2]; [4],(100) % Control
same,Total Serum Protein Levels after 8th week,[2]; [4],4.73 g/dL
same,Total Serum Protein Levels after 8th week (% Control),[2]; [4],(100) % Control
same,Total Protein in Kidney Homogenate (% Control),[2]; [5],(100) % Control
same,Total Protein in Kidney Homogenate Mean,[2]; [5],926.67 µg/mL
same,TBARS (% Control),[2]; [6],(100) % Control
same,TBARS Mean,[2]; [6],0.82 nM/mg
